Test results published in patent US5688771A, “Lipophilic oligopeptides with immunomodulating activity” (priority 1993, dated 1997).
Where “and” joins values, the source holds several entries; their conditions need not be identical. Equal entries are not always repeated. Entries after “also recorded” stand apart in the source; their conditions may differ. Where two headings read alike, the source gives them in different places.

Legend:
[1] = system: antibody producing cells (SRBC antigen); assay: Plaque forming assay (PFC) in spleen cells of SRBC-immunized mice; type: in vivo
[2] = Toxicity controls: mortality and weight gain in uninfected mice; type: in vivo; details: uninfected mice; for Mean Weight Gain: start of treatment to 24 hours after final treatment
Procedure: Groups of 5 uninfected mice were treated the same way and at the same times as described above. These animal were checked daily for survival. Their weigths were taken before the first treatment and 24 hours after the last treatment to determine drug effect on weight gain.

YAC-1 tumor cells [3] = type: in vivo, BALB/c mice; details: for Mean percent chromium release (2SE), Effector:Target 25:1 / Mean percent chromium release (2SE), Effector:Target 50:1 / Mean percent chromium release (2SE), Effector:Target 100:1: ip, Hydrochloride
[4] = system: Macrophage activation (IL-1 concentration); set-up: species or system BALB/c mice; details: mouse, in vivo, Hydrochloride
[5] = system: IgM antibody against SRBC antigen; assay: Enzyme immunoassay of IgM antibody in blood of SRBC-immunized mice; type: in vivo; details: Experiment 7, 10 mg/kg i.p.
Procedure: Outbred CD1 mice were immunized with 0.1% volume for volume sheep red blood cell antigen suspended in saline. The mice were injected intraperitoneally with 0.5 ml, suspension of approximately 2×10^7 cells.
The mice were injected shortly thereafter with a suspension of an immunomodulator of the invention. The immunomodulator dose was a 0.23 ml of a 1 mg/ml suspension in phosphate buffered saline. The injected dose was 10 mg/kg. The second injection was also intraperitoneal.
The mice were killed five days after injections. Blood samples were taken for analysis of immunoglobulin. The determination was made by enzyme immunoassay using an anti μ-horseradish peroxidase conjugate. The spleen was removed, transferred to a petri dish containing 2 ml of Hank's balanced salt solution and 10 mMolar Hepes buffer (HBSS-HEPES). The spleen was gently crushed by the use of forceps, and the cell suspension was filtered through cotton gauze to eliminate cellular debris. The filtered suspension was brought to volume (5 ml) by the addition of HBSS-HEPES, the cells counted, and the suspension diluted to a final concentration of 5×10^6 cells/ml.

YAC-1 tumor cells [6] = assay: Natural killer cell activity, 4 hr chromium release assay
Procedure: (§1) Mice were administered a 50 mg/kg dose of the immunomodulators of the invention and were subsequently sacrificed. The spleens were harvested and splenocytes isolated. Immunologic assays were conducted on those splenocytes that were taken 24 hours after final treatment. These cells were subjected to tests to determine macrophage and natural killer (NK) cell function.
Three week-old C57 BL/6 mice were procured and quarantined for 24 to 48 hours prior to treatment. The five oligopeptides described in tables 2, 3 and 4 were admixed with a 0.4% water solution of carboxymethylcellulose. The solutions were stored at 4° C. until use. Ribavarin (1-β-D-ribofuranosyl-1,2,4-triazole-carboxamide) was used in each subsequent experiment as a control.
(§2) Animals were treated with a 50 mg/kg/day dosage of one of the tested compound and were killed 24 hr after the final treatment and their spleens removed. […] Red blood cells were removed by haemolytic lysis.
Natural killer (NK) activity of murine cells was determined by testing splenic cells for their ability to lyse YAC-1 tumor cells in a conventional 4 hr chromium release assay as an indicator of NK was expressed as: % chromium release=(experimental counts per minute (cpm)-background cpm)/(maximum cpm-background cpm)

[7] = system: murinecytomegalovirus (MCMV) (Smith strain); assay: Mortality in MCMV-infected mice; type: in vivo, Swiss Webster female mice; details: for Survivors (%) / Survivors/total / Mean day to death: MCMV-infected mice; for Survivors (%) / Survivors/total: 21 days; for Mean day to death: of mice that died on or before day 21
[8] = system: murinecytomegalovirus (MCMV) (Smith strain); assay: MCMV titers in tissues; type: in vivo, Swiss Webster female mice
[9] = system: Total T and B cells in splenocytes; assay: Splenic T and B cell enumeration by FACS; type: in vivo, C57BL/6 mice
Description: Splenic cells were enumerated with the following assay. Dispersed splenocytes were reacted with fluorescein isothiocyanate-labelled murine monoclonal antibody anti-Ly5 for B cell enumeration and phycoerythrin-labelled monoclonal antibody anti-Thy 1.2 for T cell counts. The labelled cells were then enumerated with a fluorescence-activated cell sorter (FACS) (EPICS-C, Coulter Corp., Hialeah, Fla.).

[10] = system: Macrophage function (IL-1 activity in splenocytes); assay: Macrophage function, IL-1 activity in splenocytes by [3H]thymidine uptake in PHA-stimulated thymocytes
Procedure: as §1
Ribavarin (1-β-D-ribofuranosyl-1,2,4-triazole-carboxamide) was used in each subsequent experiment as a control.
as §2
Macrophage function was assessed by an interleukin-1 (IL-1) assay that utilizes responsiveness of mouse thymocytes to phytohemagglutin (PHA) which is dependent on IL-1 for its reactivity.
The cells were incubated 72 hr at 37° C. During the last 4 hr of the incubation, the cells were pulsed with [^3 H] thymidine (1 μCi/well). The cells were then harvested and [H^3 ] thymidine incorporation was determined using a direct counter.

[11] = 50 mg/kg/day i.p. every other day for 4 injections, splenocytes 24 hr after final treatment, n = 5
[12] = 50 mg/kg, splenocytes 24 hours after final treatment, Hydrochloride
[13] = 50 mg/kg i.p. days -1,+1,+3,+5,+7
[14] = 100 mg/kg i.p. days -1,+1,+3,+5,+7
[15] = 200 mg/kg i.p. days -1,+1,+3,+5,+7
[16] = prophylactic treatment, three doses 50-200 mg/kg i.p., Hydrochloride
[17] = 50 mg/kg, splenocytes, Hydrochloride

Compound: CCCCCCCCCCCCCCCCCCN[C@H](C)C(=O)N[C@@H](CCC(N)=O)C(=O)O.Cl [BCH-527, Octadecyl D-Alanyl L-Glutamine Hydrochloride]
- Plaque Assay, PFC relative to control (100%) ([1]; Experiment 7, mice, 10 mg/kg i.p.): 6843%
- Plaque Assay, PFC per 10^6 spleen cells ([1]; Experiment 7, mice, 10 mg/kg i.p., five days after injections): 479 ± 322 PFC per 10^6 spleen cells
- Immunomodulating activity (in words) ([1]; plaque-forming assay, Table 1): immunostimulants
- Survivors (%) ([2]; 50 mg/kg): 100%
- Survivors/total ([2]; 50 mg/kg): 5/5
- Mean Weight Gain ([2]; 50 mg/kg): 8.4 gm
- Survivors (%) ([2]; 100 mg/kg): 100%
- Survivors/total ([2]; 100 mg/kg): 5/5
- Mean Weight Gain ([2]; 100 mg/kg): 9.0 gm
- Survivors (%) ([2]; 200 mg/kg): 100%
- Survivors/total ([2]; 200 mg/kg): 5/5
- Mean Weight Gain ([2]; 200 mg/kg): 6.9 gm
- Effect on NK cells (in words) (YAC-1 tumor cells [3]; after 4 injections at 100 and 50 mg/kg/day, […]): strong activation of NK cells
- Effect on natural killer cells activity (in words) (YAC-1 tumor cells [3]; mouse, in vivo): stimulated the natural killer cells activity
- Mean percent chromium release (2SE), Effector:Target 25:1 (YAC-1 tumor cells [3]; mouse, in vivo, 50 mg/kg/day): 10.8(1.3) percent and 12.7(0.4) percent and 14.8(0.9) percent
- Mean percent chromium release (2SE), Effector:Target 50:1 (YAC-1 tumor cells [3]; mouse, in vivo, 50 mg/kg/day): 17.6(1.1) percent and 17.1(0.6) percent and 18.5(1.0) percent
- Mean percent chromium release (2SE), Effector:Target 100:1 (YAC-1 tumor cells [3]; mouse, in vivo, 50 mg/kg/day): 21.2(2.9) percent and 23.3(1.0) percent and 23.9(1.1) percent
- Mean percent chromium release (2SE), Effector:Target 25:1 (YAC-1 tumor cells [3]; mouse, in vivo, 100 mg/kg/day): 10.6(1.8) percent and 11.8(1.7) percent and 16.9(1.3) percent
- Mean percent chromium release (2SE), Effector:Target 50:1 (YAC-1 tumor cells [3]; mouse, in vivo, 100 mg/kg/day): 16.6(1.9) percent and 16.4(1.8) percent and 20.8(1.4) percent
- Mean percent chromium release (2SE), Effector:Target 100:1 (YAC-1 tumor cells [3]; mouse, in vivo, 100 mg/kg/day): 20.0(2.0) percent and 22.3(2.0) percent and 26.5(1.6) percent
- Mean percent chromium release (2SE), Effector:Target 25:1 (YAC-1 tumor cells [3]; mouse, in vivo, 200 mg/kg/day): 11.3(0.6) percent and 8.6(0.6) percent and 9.6(0.9) percent
- Mean percent chromium release (2SE), Effector:Target 50:1 (YAC-1 tumor cells [3]; mouse, in vivo, 200 mg/kg/day): 17.3(1.4) percent and 12.8(0.7) percent and 12.9(0.9) percent
- Mean percent chromium release (2SE), Effector:Target 100:1 (YAC-1 tumor cells [3]; mouse, in vivo, 200 mg/kg/day): 20.4(2.4) percent and 18.2(1.0) percent and 17.6(1.1) percent
- IL-1 Conc. (2SE) ([4]; 200 mg/kg/day): 16.6(3.7) μg/ml and 31.4(3.4) μg/ml and 29.1(7.4) μg/ml
- Effect on macrophage activation (in words) [4]: significant macrophage activator; also recorded: macrophage stimulation
- Enzyme Immunoassay, IgM antibody relative to control (100%) [5]: 523%
- % Chromium Release ± SD, Effector:Target Ratio 25:1 (YAC-1 tumor cells [6]; [11]): 13.9 ± 2.0%
- % Chromium Release ± SD, Effector:Target Ratio 50:1 (YAC-1 tumor cells [6]; [11]): 24.0 ± 1.7%
- Effect on natural killer (NK) cell activity (in words) (YAC-1 tumor cells [6]; [12]): significantly stimulate; also recorded: stimulated
- Survivors (%) [7, 13]: 90%
- Survivors/total [7, 13]: 9/10
- Mean day to death ([7]; 50 mg/kg i.p.): 4.0 ± 0.0 days
- Survivors (%) [7, 14]: 78%
- Survivors/total [7, 14]: 7/9
- Mean day to death ([7]; 100 mg/kg i.p.): 10.5 ± 6.3 days
- Survivors (%) [7, 15]: 100%
- Survivors/total [7, 15]: 10/10
- Mean day to death ([7]; 200 mg/kg i.p.): > 21 days
- Effect on death in CMV-challenged mice (in words) [7, 16]: prevented death; also recorded: preventing death
- Virus titer in Liver ([8]; Day 3, 50 mg/kg): 3.1±0.7 Log10 CCID50/qram
- Virus titer in Lung ([8]; Day 3, 50 mg/kg): < 2.5±0.0 Log10 CCID50/qram
- Virus titer in spleen ([8]; Day 3, 50 mg/kg): 6.1±0.6 Log10 CCID50/qram
- Virus titer in Liver ([8]; Day 3, 100 mg/kg): 2.9±0.7 Log10 CCID50/qram
- Virus titer in Lung ([8]; Day 3, 100 mg/kg): < 2.5±0.0 Log10 CCID50/qram
- Virus titer in salivary gland ([8]; Day 3, 100 mg/kg): 3.0±0.4 Log10 CCID50/qram
- Virus titer in spleen ([8]; Day 3, 100 mg/kg): 4.7±1.6 Log10 CCID50/qram
- Virus titer in Liver ([8]; Day 3, 200 mg/kg): 2.9±0.4 Log10 CCID50/qram
- Virus titer in Lung ([8]; Day 3, 200 mg/kg): < 2.5±0.0 Log10 CCID50/qram
- Virus titer in salivary gland ([8]; Day 3, 200 mg/kg): < 2.5±0.0 Log10 CCID50/qram
- Virus titer in spleen ([8]; Day 3, 200 mg/kg): 5.3±0.4 Log10 CCID50/qram
- Virus titer in Liver ([8]; Day 6, 50 mg/kg): 3.1±1.1 Log10 CCID50/qram
- Virus titer in Lung ([8]; Day 6, 50 mg/kg): 3.4±0.6 Log10 CCID50/qram
- Virus titer in spleen ([8]; Day 6, 50 mg/kg): 4.3±1.2 Log10 CCID50/qram
- Virus titer in Liver ([8]; Day 6, 100 mg/kg): < 2.5±0.0 Log10 CCID50/qram
- Virus titer in Lung ([8]; Day 6, 100 mg/kg): 3.9±0.8 Log10 CCID50/qram
- Virus titer in salivary gland ([8]; Day 6, 100 mg/kg): 2.8±0.3 Log10 CCID50/qram
- Virus titer in spleen ([8]; Day 6, 100 mg/kg): 4.9±0.6 Log10 CCID50/qram
- Virus titer in Liver ([8]; Day 6, 200 mg/kg): < 2.5±0.0 Log10 CCID50/qram
- Virus titer in Lung ([8]; Day 6, 200 mg/kg): 3.1±0.4 Log10 CCID50/qram
- Virus titer in salivary gland ([8]; Day 6, 200 mg/kg): 3.5±0.7 Log10 CCID50/qram
- Virus titer in spleen ([8]; Day 6, 200 mg/kg): 3.7±0.7 Log10 CCID50/qram
- Effect on tissue virus titres (in words) [8, 16]: reduced MCMV tissue virus titres; also recorded: reducing tissue virus titres
- % Cells/Spleen ± SD, B Cells ([9]; 50 mg/kg/day i.p. every other day for 4 injections, anti-Ly5, n = 5): 43 ± 1.5%
- % Cells/Spleen ± SD, T Cells ([9]; 50 mg/kg/day i.p. every other day for 4 injections, anti-Thy 1.2, n = 5): 39 ± 2.3%
- Effect on B cell counts (in words) [9, 17]: increase % B cells; also recorded: increased B cell counts
- Effect on T cell counts (in words) [9, 17]: suppressing T cells; also recorded: suppressed T cell counts
- Mean CPM of Treated Thymocytes ± SD [10, 11]: 5660 ± 1011 CPM
- Effect on macrophage function (in words) [10, 12]: somewhat stimulatory; also recorded: macrophage stimulation
